{
  "source": "paper PMC5482218",
  "about": "(Archiv der Pharmazie, 2016)",
  "key": {"[1]": {"tested_on": "PC12 cells", "assay": "LDH release cell viability assay, with and without 200 μM H2O2", "type": "cell-based, rat", "conditions": "for Attenuation of H2O2-induced LDH release: 200 μM H2O2 24 h, p<0.05; for LDH release by compound alone (inherent toxicity): absence of H2O2, 100 μM, PC12 cells"}, "[2]": {"tested_on": "PC12 cells"}, "[3]": {"tested_on": "L-type calcium channels (LTCC)", "assay": "High-throughput fluorescence Ca2+ flux assay", "conditions": "for IC50: read-out: IC50 for the inhibition of K+-induced Ca2+ influx, PC12 cells loaded with Fura-2/AM, 10 min preincubation, depolarization with 50 mM KCl; for Dose-response profile / effect on K+-induced Ca2+ influx: PC12 cells, Fura-2/AM, 50 mM KCl"}},
  "data": [
    {"molecule": "c1ccc(CNC23OC4C5C6CC(C7C6C4C72)C53)cc1", "note": "(stereo not drawn) [Compound 7a, 8-benzylamino-8,11-oxapentacyclo[5.4.0.0^2,6.0^3,10.0^5,9]undecane]", "values": [
      {"measurement": "Attenuation of H2O2-induced LDH release", "setting": "[1]; compound at 1, 10 and 100 μM", "value": "significant attenuation of LDH release"},
      {"measurement": "LDH release by compound alone (inherent toxicity)", "setting": "[1]", "value": "some LDH release"},
      {"measurement": "Reduction of H2O2-induced toxicity (Trypan blue exclusion)", "setting": "[2]; 200 μM H2O2, compound at 1, 10 and 100 μM, p<0.05", "value": "significant reduction"},
      {"measurement": "IC50", "setting": "[3]", "value": 86, "unit": "µM"}
    ]},
    {"molecule": "3-Hydroxy-3,11-oxatricyclo[6.3.0.0^2,6]undecane [Compound 11]", "values": [
      {"measurement": "Dose-response profile / effect on K+-induced Ca2+ influx", "setting": "[3]", "value": "potentiating effect"}
    ]},
    {"molecule": "N-Benzyl-3,11-azatricyclo[6.3.0.0^2,6]undecane [Compound 14a]", "values": [
      {"measurement": "IC50", "setting": "[3]", "value": 74, "unit": "µM"}
    ]},
    {"molecule": "OC12C3C4CC5C6C4C1C6C(C53)N2CCc1ccccc1", "note": "(stereo not drawn) [Compound 8b, N-Phenylethyl-3-hydroxy-4-azahexacyclo[5.4.1.0^2,6.0^3,10 0^5,9.0^8,11]dodecane]", "values": [
      {"measurement": "Attenuation of H2O2-induced LDH release", "setting": "[1]; compound at 1 and 10 μM", "value": "significant attenuation of LDH release"},
      {"measurement": "LDH release by compound alone (inherent toxicity)", "setting": "[1]", "value": "some LDH release"},
      {"measurement": "Protection in the cell viability assay (Trypan blue)", "setting": "[2]; 200 μM H2O2, concentration not stated", "value": "able to offer protection"},
      {"measurement": "Change in cell viability by compound alone (Trypan blue exclusion)", "setting": "[2]; absence of H2O2, 10 and 100 μM, versus untreated cells", "value": "slight decrease in cell viability"},
      {"measurement": "IC50", "setting": "[3]", "value": 8, "unit": "µM"}
    ]},
    {"molecule": "CCCCCCCN1C2C3C4CC5C6C4C2C6C1(O)C53", "note": "(stereo not drawn) [Compound 8c, N-Heptyl-3-hydroxy-4-azahexacyclo[5.4.1.0^2,6.0^3,10.0^5,9. 0^8,11]dodecane]", "values": [
      {"measurement": "IC50", "setting": "[3]", "value": 7, "unit": "µM"}
    ]},
    {"molecule": "O=C1CCC2CC3CCC(=O)C3C12", "note": "(stereo not drawn) [Compound 10, Tricyclo[6.3.0.0^2,6]undecane-3,11-dione]", "values": [
      {"measurement": "Dose-response profile / effect on K+-induced Ca2+ influx", "setting": "[3]", "value": "slight potentiating effect but no antagonistic activity"}
    ]},
    {"molecule": "c1cc(CN2C3CCC4CC5CCC2C5C43)ccn1", "note": "(stereo not drawn) [Compound 14f, N-(Pyridin-4-ylmethyl)-3,11-azatricyclo[6.3.0.0^2,6]-undecane]", "values": [
      {"measurement": "IC50", "setting": "[3]", "value": 5, "unit": "µM"}
    ]},
    {"molecule": "N-Cyclohexylmethyl-3,11-azatricyclo[6.3.0.0^2,6]undecane [Compound 14d]", "values": [
      {"measurement": "IC50", "setting": "[3]", "value": 68, "unit": "µM"}
    ]},
    {"molecule": "O=C1C2C3CC4C2C(=O)C2C1C3C42", "note": "(stereo not drawn) [Compound 4, Pentacyclo[5.4.0.0^2,6.0^3,10.0^5,9]undecane-8,11-dione]", "values": [
      {"measurement": "Dose-response profile / effect on K+-induced Ca2+ influx", "setting": "[3]", "value": "no activity"}
    ]},
    {"molecule": "OC12C3C4CC5C6C4C1C6C(C53)N2Cc1ccccc1", "note": "(stereo not drawn) [Compound 8a, N-Benzyl-3-hydroxy-4-azahexacyclo[5.4.1.0^2,6.0^3,10.0^5,9. 0^8,11]dodecane]", "values": [
      {"measurement": "IC50", "setting": "[3]", "value": 35, "unit": "µM"}
    ]},
    {"molecule": "COc1cccc(CN2C3CCC4CC5CCC2C5C43)c1", "note": "(stereo not drawn) [Compound 14e, N-(3-Methoxybenzyl)-3,11-azatricyclo[6.3.0.0^2,6]undecane]", "values": [
      {"measurement": "IC50", "setting": "[3]", "value": 11, "unit": "µM"}
    ]}
  ]
}
